Data on two compounds can be found in patent US11690828B2, “Treatment of CNS diseases with sGC stimulators” (Cyclerion Therapeutics, Inc., priority 2016, dated 2023).

The subject of test [1] is cGMP. The experiment in a line: Compound-induced cGMP in mouse brain. Format: in vivo. As for the experimental part:
Protocol. Mice (n=9-10 per experimental condition) were dosed P.O. with vehicle (1% hydroxypropyl methyl cellulose, 0.2% Tween80, 0.5% methyl cellulose), P.O. with 10 mg/Kg of Compound I-2. Thirty minutes after dosing, under isoflurane anesthesia, each mouse was decapitated and its brain was removed and was placed into an ice-cold petri dish containing slushy dissection solution (saturated with 95% O2·5% CO2). Using an ice-cold spatula, the brain was transferred to mouse brain matrix with coronal spacing for slicing at 1 mm intervals, as schematized in the FIGURE below (not to scale, just a scheme). • ?
The sliced brain was transferred back into petri dish containing slushy dissection solution with IBMX 0.5 mM (saturated with 95% O2·5% CO2). The dorsal striatum is dissected first, followed by the hippocampus second, followed by the medial prefrontal cortex third, and lastly, the cerebellum fourth. After each region was dissected the “chunk” of tissue was immediately placed into an eppendorf which had been placed on dry ice for the previous 30 minutes. Small pieces of tissue froze very fast, within 10 seconds approximately. After all regions were placed in an eppendorf, eppendorfs were snap frozen by immersion into liquid nitrogen. The tissue samples were stored at −80 C. cGMP levels in brain were determined by LC/MS. Brain samples were homogenized in an aqueous buffer consisting of 80:20 (V/V %) water:acetic acid using an ultrasonicator probe. Brain homogenates containing sGC compounds and or cGMP were extracted from brain tissue by protein precipitation with an organic solvent containing internal standards (IS) followed by filtration and phospholipid removal using a Phenomenex® Phree™ phospholipid removal plate. Samples were analyzed using liquid chromatography (LC) with tandem mass spectrometric detection (MS/MS) using electrospray ionization. The standard curve concentrations used for quantitation of cGMP and or sGC compound(s) ranged from 0.2 to 400 ng/mL. Protein quantification of brain samples was determined using BCA protein assay kit.

Test [2] concerns cGMP. The experiment in a line: Dose-response compound-induced cGMP in mouse brain (cerebrum). The class given is in vivo. The following applies: 30 minutes after dosing. As for the experimental part:
Protocol. Experimental Day 1: Fast mice overnight with ad libitum access to water. Experimental Day 2: Mice (n=10 per experimental condition) were dosed P.O. with vehicle (1% hydroxypropyl methyl cellulose, 0.2% Tween80, 0.5% methyl cellulose), 3 or 10 mg/Kg of Compound I-2 prepared in vehicle. Thirty minutes after dosing, under isoflurane anesthesia, each mouse was decapitated and its brain was removed. The cerebrum was separated from each brain and placed in separate 15 ml falcon tubes and flash froze by immersion into liquid nitrogen. The tissue samples were stored at −80 C. cGMP levels in brain were determined by LC/MS. Brain samples were homogenized in an aqueous buffer consisting of 80:20 (V/V %) water:acetic acid using an ultrasonicator probe. Brain homogenates containing sGC compounds and or cGMP were extracted from brain tissue by protein precipitation with an organic solvent containing internal standards (IS) followed by filtration and phospholipid removal using a Phenomenex® Phree™ phospholipid removal plate. Samples were analyzed using liquid chromatography (LC) with tandem mass spectrometric detection (MS/MS) using electrospray ionization. The standard curve concentrations used for quantitation of cGMP and or sGC compound(s) ranged from 0.2 to 400 ng/mL. Protein quantification of brain samples was determined using BCA protein assay kit

Test [3] concerns CREB. The test can be described thus: pCREB phosphorylation in rat primary neurons. Format: cell-based. The following applies: Primary neuron, 0.5 h, 30 μM DETA-NONOate, 30 min, 95% confidence interval 0.07 nM to 4.44 nM, read-out: EC50, phosphorylation of CREB at Ser133. As for the experimental part: Compounds. Compound I-5 was dissolved in DMSO as a 10 mM solution and stored at −20° C. To achieve desired test concentrations, stock concentrations were serially diluted into DMSO and then diluted to the appropriate concentration in assay buffer.
Rat primary neurons culture. Neurons were isolated from Sprague Dawley rat embryos on embryonic day 18 (E18). Approximately 10 embryos were obtained from each rat, and whole brains were isolated from the embryos. Hippocampus and cortex were dissected from the brains under a stereoscopic microscope using two pairs of fine tweezers. The meninges were carefully removed. After dissection, the tissues were chopped and washed gently once with 10 mL of Ca^2+ and Mg^2+ free Hank's solution (HBSS, Corning cat #21-022-CM) in a 15-mL conical tube. After washing, 5 mL of a solution of 0.25% trypsin (Invitrogen cat #15090-046) and 0.1% deoxyribonuclease I (DNase I, Sigma cat #DN-25) were added to the tissues in the tube, which were then incubated at 37° C. for 15 min. […]
Assay Conditions. […] Medium was removed and cell were lysed and assay was performed according to Cisbio protocol (phospho-CREB (Ser133) catalog #64CREPEG) and the plate was read using Envision instrument (PerkinElmer).
Data Analysis. Data were analyzed with a 4-parameter fit (log(agonist) vs. response—variable slope) using GraphPad Prism Software v.7. […]

The structures appear in SMILES notation. pEC50: −log10 of the molar value.

For `Fc1ccccc1Cn1nc(-c2nc(C(F)(F)F)n[nH]2)c2cccnc21` [Compound I-2], the “mPFC: nM cGMP/μg protein” value in test [1] (mouse cortex, 10 mg/Kg P.O., 30 minutes after dosing, vehicle 0.075) came out at 0.124 nM cGMP/μg protein. For the same compound, the “Hippocampus: nM cGMP/μg protein” value in test [1] (mouse, 10 mg/Kg P.O., 30 minutes after dosing, vehicle 0.033) was found to be 0.072 nM cGMP/μg protein. For the same compound, the “Striatum: nM cGMP/μg protein” value in test [1] (mouse, 10 mg/Kg P.O., 30 minutes after dosing, vehicle 0.062) was 0.104 nM cGMP/μg protein. Further, the “Cerebellum: nM cGMP/μg protein” value in test [1] (mouse, 10 mg/Kg P.O., 30 minutes after dosing, vehicle 0.364) was 0.681 nM cGMP/μg protein. For the same compound, in test [1] (mouse, acute 10 mg/Kg P.O.), the “cGMP in the cerebellum versus vehicle” value is given as “significant increase”, the “cGMP in the cortex versus vehicle” value is “significant increase” and the “cGMP in the hippocampus versus vehicle” value is given as “significant increase”. Moreover, the “cGMP in mouse brain as compared to vehicle dosed animals” value in test [2] (acute 3 mg/Kg P.O.) is given as “increases”. Besides, the “cGMP in mouse brain as compared to vehicle dosed animals” value in test [2] (acute 10 mg/Kg P.O.) was “increases”.
On to `FC(F)(F)c1n[nH]c(-c2nc(Cc3cncnc3)c3ccccn23)n1` [Compound I-5], for which the pEC50 (commonly the EC50 on a negative log10 scale, so that one unit is a factor of ten) in test [3] is 9.26.
